Each structure is given as a SMILES string.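 Five concentrations, 48 hours, 96-well plates. At the TGI there is no net growth.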 Where a SMILES comes first, the peptide text is derived from it. The star is where a group is joined. Cbz = O=C(OCc1ccccc1)*; Boc = CC(C)(C)OC(=O)*; OSu = O=C1CCC(=O)N1O*; Bn = c1ccc(C*)cc1 Some results are limits rather than exact numbers.

Test systems include A549 NSCLC; DU-145 prostate; HOP-92 NSCLC; HS 578T breast; HT29 colon; MDA-N; NCI-H460 lung; OVCAR-8 ovarian; SF-268 CNS; SK-OV-3 ovarian; U251 CNS.
Test in all cases: NCI tumour cell line growth inhibition, 48 h

Consider `CCc1cc2c(c3c1CCCC3=O)CC1(C2)Cc2cc(CC)c3c(c2C1)C(=O)CCC3`, for which the TGI in the assay on A549 NSCLC, in the assay on DU-145 prostate, in the assay with HOP-92 NSCLC, with HS 578T breast, in the assay with HT29 colon and in the assay on MDA-N was above 100 µM throughout. Also, the TGI in the assay on NCI-H460 lung, in the assay with OVCAR-8 ovarian, in the assay on SF-268 CNS, with SK-OV-3 ovarian and with U251 CNS was above 100 µM in each case.
As to `c1ccc(-c2c(-c3[nH]c4ccccc4c3-c3ccccc3)[nH]c3ccccc23)cc1`, the TGI in the assay on A549 NSCLC is 13.5 µM; with DU-145 prostate, 10.8 µM; with HOP-92 NSCLC, 12.2 µM; in the assay on HS 578T breast it was 51.6 µM; in the assay on HT29 colon, above 100 µM; in the assay with MDA-N it was 7.46 µM. Further, the TGI with NCI-H460 lung is 8.57 µM; in the assay on OVCAR-8 ovarian, 15.6 µM; in the assay with SF-268 CNS, 21.5 µM; in the assay on SK-OV-3 ovarian, 21 µM; in the assay with U251 CNS, 14.8 µM.
With `C#CCOC(=O)C(=[N+]=[N-])C(=O)CC(C)C`, the TGI in the assay on A549 NSCLC, in the assay on DU-145 prostate, with HOP-92 NSCLC, in the assay on HS 578T breast, in the assay on HT29 colon and with MDA-N was above 10 µM in each case. Also, the TGI in the assay on NCI-H460 lung, in the assay with OVCAR-8 ovarian, with SF-268 CNS, in the assay on SK-OV-3 ovarian and with U251 CNS was above 10 µM throughout.
Take `COc1ccc(N=Nc2c(N)nn3c(SC)c(C#N)c(N)nc23)cc1`: the TGI with A549 NSCLC was determined as 36.9 µM; in the assay on DU-145 prostate it was 19.3 µM; in the assay on HOP-92 NSCLC it was 27.6 µM; in the assay with HS 578T breast, 6.91 µM; in the assay on HT29 colon it was 25.5 µM; in the assay on MDA-N, 26.7 µM. For the same molecule, the TGI in the assay on NCI-H460 lung was 34.7 µM; with OVCAR-8 ovarian, 11.7 µM; in the assay on SF-268 CNS it was 11.4 µM; with SK-OV-3 ovarian, 38.8 µM; with U251 CNS, 19.5 µM.
On to `Clc1ccc(C2=NCON=C2c2ccc(Cl)cc2)cc1`, for which the TGI was above 100 µM with A549 NSCLC; above 100 µM in the assay with DU-145 prostate; 43.5 µM in the assay with HOP-92 NSCLC; 36.2 µM with HS 578T breast; 31.1 µM in the assay on HT29 colon; 56.5 µM in the assay with MDA-N. For the same molecule, the TGI in the assay with NCI-H460 lung amounted to 40.6 µM; in the assay with OVCAR-8 ovarian, 88.7 µM; in the assay on SF-268 CNS, 57.7 µM; in the assay on SK-OV-3 ovarian, 47.1 µM; in the assay on U251 CNS, 40.1 µM.
Take `Cc1cc(=O)n2nc(CSc3nnc(Sc4cc(O)ccc4O)s3)sc2n1`: the TGI in the assay on A549 NSCLC is above 100 µM; with DU-145 prostate, above 100 µM; with HOP-92 NSCLC, above 100 µM; in the assay with HS 578T breast, above 100 µM; in the assay with HT29 colon, above 100 µM; in the assay on MDA-N it was 32.8 µM. For the same molecule, the TGI with NCI-H460 lung, in the assay on OVCAR-8 ovarian, with SF-268 CNS, in the assay with SK-OV-3 ovarian and with U251 CNS was above 100 µM throughout.
For `COc1ccc2c(c1)CC[C@@H]1C2CC[C@]2(C)C(=C=CP(=O)(O)O)CCC12` (stereo partly specified), the TGI in the assay with A549 NSCLC, with DU-145 prostate, in the assay on HOP-92 NSCLC, in the assay with HS 578T breast, in the assay on HT29 colon and in the assay on MDA-N was above 100 µM in each case. The TGI with NCI-H460 lung, with OVCAR-8 ovarian, in the assay with SF-268 CNS, with SK-OV-3 ovarian and with U251 CNS was above 100 µM each time.
For the molecule `O=C1C=C/C(=C/[C@H]2SSC=C[C@]23C=CC(=O)C3)C1`, the TGI in the assay on A549 NSCLC was 63.2 µM; with DU-145 prostate, 47.3 µM; in the assay on HOP-92 NSCLC it was 61.5 µM; with HS 578T breast, 93.2 µM; in the assay on HT29 colon, 32.2 µM; in the assay on MDA-N, 51.3 µM. Further, the TGI in the assay with NCI-H460 lung is above 94.3 µM; in the assay on OVCAR-8 ovarian, above 81 µM; in the assay with SF-268 CNS, above 85.2 µM; in the assay on SK-OV-3 ovarian, above 100 µM; in the assay with U251 CNS it was above 100 µM.
Regarding `Cc1cc2c(cc1Cl)Sc1n[nH]c(=O)n1S2(=O)=O`, the TGI with A549 NSCLC, in the assay on DU-145 prostate, with HOP-92 NSCLC, with HS 578T breast, with HT29 colon and in the assay with MDA-N was above 100 µM throughout. Besides, the TGI in the assay with NCI-H460 lung, in the assay with OVCAR-8 ovarian, in the assay on SF-268 CNS, in the assay on SK-OV-3 ovarian and in the assay with U251 CNS was above 100 µM each time.
Take `CC(C)(C)OC(=O)NC(Cc1ccc(OCc2ccccc2)cc1)C(=O)NC(CCCCNC(=O)OCc1ccccc1)C(=O)NC(CCCCNC(=O)OCc1ccccc1)C(=O)ON1C(=O)CCC1=O` (stereo unspecified) (Boc-Tyr(Bn)-Lys(Cbz)-Lys(Cbz)-OSu; configuration not given here): the TGI is above 100 µM in the assay on A549 NSCLC; above 100 µM in the assay on DU-145 prostate; above 100 µM in the assay with HOP-92 NSCLC; 49 µM with HS 578T breast; above 100 µM with HT29 colon; 45.4 µM with MDA-N. The TGI in the assay on NCI-H460 lung is above 100 µM; with OVCAR-8 ovarian, 94.8 µM; with SF-268 CNS, above 100 µM; in the assay with SK-OV-3 ovarian, above 100 µM; in the assay on U251 CNS, 31.8 µM.
Consider `CC(C)=CCc1c2c(c(O)c3c(=O)c4c(oc13)-c1ccc(O)cc1OC4C=C(C)C)C=CC(C)(C)O2` (stereo unspecified), for which the TGI is 24.6 µM with A549 NSCLC; 27.5 µM with DU-145 prostate; 20.8 µM in the assay on HOP-92 NSCLC; 17.2 µM with HS 578T breast; 28.9 µM with HT29 colon; 27.1 µM in the assay on MDA-N. Also, the TGI in the assay on NCI-H460 lung came to 30.4 µM; in the assay on OVCAR-8 ovarian it was 28.8 µM; in the assay on SF-268 CNS, 29.8 µM; in the assay on SK-OV-3 ovarian, 33.3 µM; in the assay with U251 CNS, 25.3 µM.
Take `CCC1CN2CCc3c([nH]c4ccccc34)[C@@](C(=O)OC)(c3cc4c(cc3OC)N(C)C3C(O)(C(=O)OC)C(C(=O)OC)C5(CC)C=CCN6CCC43C65)C[C@@H](C2)[C@@H]1C(C)(C)C` (stereo partly specified): the TGI is above 10 µM in the assay with A549 NSCLC; 9.32 µM with DU-145 prostate; 8.19 µM in the assay on HOP-92 NSCLC; above 6.86 µM in the assay with HS 578T breast; above 2.64 µM in the assay on HT29 colon; 0.424 µM with MDA-N. Moreover, the TGI is 2.34 µM with NCI-H460 lung; above 3.79 µM with OVCAR-8 ovarian; above 10 µM with SF-268 CNS; above 10 µM in the assay with SK-OV-3 ovarian; above 3.52 µM in the assay with U251 CNS.
For the molecule `C=CCN1C(=O)CC(=O)N(NC2=NNC3(C(=O)N2)c2ccccc2-c2ccccc23)C1=S`, the TGI with A549 NSCLC was above 100 µM; in the assay with DU-145 prostate, above 100 µM; in the assay on HOP-92 NSCLC, 61.8 µM; in the assay on HS 578T breast, 66.1 µM; in the assay with HT29 colon, above 100 µM; in the assay on MDA-N, above 100 µM. Further, the TGI in the assay with NCI-H460 lung, in the assay with OVCAR-8 ovarian, with SF-268 CNS, with SK-OV-3 ovarian and with U251 CNS was above 100 µM each time.
For `CC(=O)C(C(C)=O)[C@H]1OC(C)(C)O[C@H]1[C@H]1COC(C)(C)O1`, the TGI in the assay on A549 NSCLC, with DU-145 prostate, in the assay with HOP-92 NSCLC, with HS 578T breast, in the assay with HT29 colon and in the assay on MDA-N was above 100 µM throughout. The TGI in the assay with NCI-H460 lung is above 100 µM; in the assay with OVCAR-8 ovarian, above 100 µM; in the assay with SF-268 CNS, above 100 µM; in the assay with SK-OV-3 ovarian, above 100 µM; with U251 CNS it was 79.9 µM.
With `CCOC(=O)c1c(-c2ccccc2)c(C)cn1C`, the TGI with A549 NSCLC, in the assay on DU-145 prostate, with HOP-92 NSCLC, with HS 578T breast, in the assay on HT29 colon and with MDA-N was above 10 µM each time. Besides, the TGI with NCI-H460 lung, in the assay with OVCAR-8 ovarian, in the assay with SF-268 CNS, in the assay with SK-OV-3 ovarian and in the assay on U251 CNS was above 10 µM each time.
`CCOC(=O)c1cn(CC)c2ccc3c(c2c1=O)S(=O)(=O)C=C3`: the TGI in the assay on A549 NSCLC, in the assay on DU-145 prostate, in the assay with HOP-92 NSCLC, in the assay with HS 578T breast, with HT29 colon and in the assay with MDA-N was above 100 µM each time. The TGI with NCI-H460 lung, in the assay on OVCAR-8 ovarian, with SF-268 CNS, in the assay with SK-OV-3 ovarian and in the assay on U251 CNS was above 100 µM each time.
Take `COc1cc2c(cc1OC)C(=O)/C(=C/c1ccc(N(C)C)cc1)CC2`: the TGI with A549 NSCLC, in the assay with DU-145 prostate, with HOP-92 NSCLC, in the assay on HS 578T breast, in the assay on HT29 colon and with MDA-N was above 10 µM throughout. In addition, the TGI in the assay with NCI-H460 lung, with OVCAR-8 ovarian, in the assay with SF-268 CNS, in the assay with SK-OV-3 ovarian and in the assay with U251 CNS was above 10 µM in each case.
For the molecule `Cc1ncc(CSC(=N)N)n1Cc1ccccc1`, the TGI in the assay on A549 NSCLC, with DU-145 prostate, with HOP-92 NSCLC, in the assay with HS 578T breast, in the assay with HT29 colon and in the assay on MDA-N was above 100 µM each time. For the same molecule, the TGI with NCI-H460 lung, with OVCAR-8 ovarian, in the assay with SF-268 CNS, with SK-OV-3 ovarian and with U251 CNS was above 100 µM throughout.
On to `Cc1ccc(NCCN(C)C)c2c(=O)c3cc(O)ccc3sc12`, for which the TGI was 8.08 µM in the assay on A549 NSCLC; 15.6 µM in the assay with DU-145 prostate; 14.4 µM with HOP-92 NSCLC; 3.87 µM with HS 578T breast; 8.2 µM with HT29 colon; 4.58 µM in the assay on MDA-N. Besides, the TGI in the assay on NCI-H460 lung is 5.72 µM; in the assay on OVCAR-8 ovarian, 6.84 µM; in the assay with SF-268 CNS, 15.6 µM; in the assay with SK-OV-3 ovarian, 9.84 µM; with U251 CNS, 8.49 µM.
For `O=C1c2ccccc2C(=O)c2sc(Nc3cc(Cl)ccc3Cl)nc21`, the TGI was 42.2 µM in the assay on A549 NSCLC; 24.6 µM with DU-145 prostate; 36.2 µM with HOP-92 NSCLC; above 72.3 µM in the assay with HS 578T breast; 36.1 µM in the assay on HT29 colon; 3.41 µM in the assay on MDA-N. For the same molecule, the TGI in the assay on NCI-H460 lung is 21.5 µM; in the assay on OVCAR-8 ovarian it was 14.2 µM; in the assay on SF-268 CNS, 21 µM; in the assay on SK-OV-3 ovarian, 30.3 µM; with U251 CNS, 33.5 µM.
For `Cn1c(=O)c2c(nc(N/N=C3/SCC(=O)N3Cc3ccccc3)n2C)n(C)c1=O`, the TGI with A549 NSCLC is above 100 µM; with DU-145 prostate it was above 100 µM; in the assay on HOP-92 NSCLC it was 78.7 µM; in the assay on HS 578T breast it was above 100 µM; in the assay on HT29 colon it was above 100 µM; in the assay with MDA-N, above 100 µM. In addition, the TGI with NCI-H460 lung, in the assay on OVCAR-8 ovarian, in the assay with SF-268 CNS, in the assay on SK-OV-3 ovarian and with U251 CNS was above 100 µM each time.

Source of the values: PubChem BioAssay (NCI).
